Results on eleven compounds are retold here after patent US9340492B2, “Meta-Diarylaniline or meta-diarylpyridinamine compound, preparation method and medical uses thereof” (INSTITUTE OF PHARMACOLOGY AND TOXICOLOGY ACADEMY OF …, priority 2012, dated 2016).

Series [1] concerns NL4-3 virus (HIV, wild-type). Put plainly: Anti-HIV activity assay (TZM-bl cell model), NL4-3 wild-type. Format: cell-based. The following applies: human, TZM-bl cells infected with HIV-1 NL4-3 virus; CC50 (TZM-bl) / EC50 (NL4-3); read-out: SI, selective index, ratio of toxic CC50 value to active EC50 value. The procedure: (§1) The assay was carried out by reference to the document (Dang, Z, et al. J. Med. Chem. 2009, 52, 7887-7891). In particular, in a 96-well cell culture plate, solutions of the compounds to be tested at different concentrations were mixed with TZM-bl cells (from National Institutes of Health (NIH)) infected with 200 TCID50 NL4-3 virus, respectively. 2 days later, the culture medium was removed, 100 μl of Bright Glo reagent was added to each well, and Victor 2 luminometer was used to detect the […] of the cells.

A further series concerns NL4-3 virus. Described as above. The following applies: read-out: EC50, concentration effective to inhibit the replication of half of viruses. Format: cell-based. The procedure: as §1
Series [2] is described as follows: TZM-bl cytotoxicity assay (XTT). The series is classed as cell-based. The following applies: human, TZM-bl cells, read-out: CC50, concentration effective to inhibit the growth of half of cells. As to the method:
The assay was carried out by reference to the document (Dang, Z, et al. J. Med. Chem. 2009, 52, 7887-7891). In particular, in a 96-well cell culture plate, solutions of Compounds 1-57 at different concentrations (100 μl) were mixed with an equivalent volume of TZM-bl cells (from National Institutes of Health (NIH)) (5×10^5/mL), and were incubated at 37° C. for 4 d. 50 μl of freshly prepared XTT solution (1 mg/mL) containing 0.02 μM PMS was added. Optical density at 450 nm was measured 4 h later.

For series [3], the system named is multi-drug resistant viral strain of HIV-1 RT (RTMDR). Put plainly: Activity against drug-resistant virus RTMDR. The following applies: Human immunodeficiency virus 1, read-out: Drug-resistant viruses EC50, RTMDR. Format: cell-based.
For series [4], the system named is K101E drug-resistant virus. Put plainly: Activity against drug-resistant virus K101E. Format: cell-based, HIV. The following applies: Human immunodeficiency virus 1, read-out: Drug-resistant viruses EC50, K101E.
Series [5] has as its system E138K drug-resistant virus. The series is described as follows: Activity against drug-resistant virus E138K. Format: cell-based, HIV. The following applies: Human immunodeficiency virus 1, read-out: Drug-resistant viruses EC50, E138K.
Series [6] can be described thus: Water-solubility at pH2.0. The conditions noted are these: for solubility: aqueous medium (water) at pH 2.0, pH 2, simulated gastric fluid. The series is classed as physicochemical.
Series [7] can be described thus: Incubation experiment of human liver microsomes. The series is classed as in vitro ADME. The following applies: for half-life: read-out: HLM t1/2. In general terms: Liver microsomes are a subcellular fraction often used to study metabolism.
Where [8] appears, read: Human immunodeficiency virus 1, NL43, TZM-bl.

In brackets after ≈: the same amount, converted by molar mass. Read-outs that look alike come from different tables or passages of the source. Where only a bound is given, the exact number is not on record here.

Turning to `Cc1cc(CCC#N)cc(C)c1Oc1cc(Nc2ccc(C#N)cc2)c(N)cc1C(F)(F)F` [Compound 2, 5-(4″-cyanoethyl-2″,6″-dimethylphenoxy)-N^1-(4′-cyanophenyl)-4-trifluoromethyl-1,2-phenylenediamine], the selectivity ratio at 2 days in series [1] was over 6280. For the same compound, the EC50 in the series on NL4-3 virus (setting [8]) turned out to be 1.13 nM; in [3] it was 3.2 nM; in series [4] it was 47.6 nM; in series [5] it was 34.4 nM. Moreover, the CC50 at 4 d in [2] was over 7100 nM. This compound showed a Water-solubility in series [6] of 0.33 µg/mL. Besides, the “HLM t1/2” value in series [7] stood at 55.7 min.

For the compound `COC(=O)c1cc(N)c(Nc2ccc(C#N)cc2)cc1Oc1c(C)cc(CCC#N)cc1C` [Compound 4, 5-(4″-cyanoethyl-2″,6″-dimethylphenoxy)-N^1-(4′-cyanophenyl)-4-methoxycarbonyl-1,2-phenylenediamine], in series [1], the selectivity ratio at 2 days is over 5260. For the same compound, the EC50 in the series on NL4-3 virus (setting [8]) was 4.3 nM; in series [3] it was 4.1 nM; in [4], 14 nM; in series [5], 7.5 nM. The CC50 at 4 d in series [2] is over 22700 nM. The compound further registered a solubility in series [6] of 1.21 µg/mL (≈ 2.75 µM). The “HLM t1/2” value in series [7] turned out to be 186 min.

For the compound `Cc1cc(CCC#N)cc(C)c1Oc1cc(Nc2ccc(C#N)cc2)c(N)cc1CO` [Compound 6, 5-(4″-cyanoethyl-2″,6″-dimethylphenoxy)-N^1-(4′-cyanophenyl)-4-hydroxymethyl-1,2-phenylenediamine], the selectivity ratio at 2 days in series [1] stood at 61000. Moreover, the EC50 in the series on NL4-3 virus (setting [8]) is 0.39 nM; in series [3], 1.8 nM; in series [4], 3.4 nM; in [5], 2.9 nM. In addition, the CC50 at 4 d in series [2] was over 23800 nM. Moreover, in [6], the solubility is 18.8 µg/mL (≈ 45.6 µM). The “HLM t1/2” value in [7] stood at 20.9 min.

`CNC(=O)c1cc(N)c(Nc2ccc(C#N)cc2)cc1Oc1c(C)cc(CCC#N)cc1C` [Compound 12, 5-(4″-cyanoethyl-2″,6″-dimethylphenoxy)-N^1-(4′-cyanophenyl)-4-(N-methyl-carbamoyl)-1,2-phenylenediamine]: the selectivity ratio at 2 days in [1] was over 3330. Further, the EC50 turned out to be 2.73 nM in the series on NL4-3 virus (setting [8]) and 14 nM in series [4]. The CC50 at 4 d in series [2] was over 9100 nM. In series [6], this compound had a solubility of 8.28 µg/mL (≈ 18.8 µM). For the same compound, in [7], the “HLM t1/2” value was 55.7 min.

`Cc1cc(/C=C/C#N)cc(C)c1Oc1cc(Nc2ccc(C#N)cc2)c([N+](=O)[O-])cc1S(N)(=O)=O` [Compound 13, N-(4′-cyanophenyl)-5-(4″-cyanovinyl-2″,6″-dimethylphenoxy)-4-aminosulfonyl-2-nitroaniline]: the melting point lay in the range of 198 to 200 °C.

`Cc1cc(CO)cc(C)c1Oc1cc(Nc2ccc(C#N)cc2)c([N+](=O)[O-])cc1CO` [Compound 17, N-(4′-cyanophenyl)-5-(4″-hydroxymethyl-2″,6″-dimethylphenoxy)-4-hydroxymethyl-2-nitroaniline] had a melting point of 216 to 218 °C.

On to `COc1cc(CCC#N)cc(Br)c1Oc1ccc(N)c(Nc2ccc(C#N)cc2)n1` [Compound 26A], for which the selectivity ratio at 2 days in series [1] worked out at 6560. Also, the EC50 was 3.25 nM in the series with NL4-3 virus (setting [8]), 3.46 nM in series [3], 3.89 nM in series [4] and 6.93 nM in series [5]. Also, in [2], the CC50 at 4 d is 21000 nM. For the same compound, in series [6], the solubility was 1.77 µg/mL (≈ 3.81 µM). Further, the half-life in [7] amounted to 54.7 min.

As to `N#CCCc1cc(Br)c(Oc2ccc(N)c(Nc3ccc(C#N)cc3)n2)c(Br)c1` [Compound 28], in [1], the selectivity ratio at 2 days came to 24900. Besides, the EC50 in the series with NL4-3 virus (setting [8]) came out at 0.33 nM; in [3], 0.74 nM; in [4] it was 7.63 nM; in series [5], 4.11 nM. For the same compound, the CC50 at 4 d in series [2] came to 8210 nM. Also, the solubility in series [6] is 3.26 µg/mL (≈ 6.35 µM). The half-life in series [7] amounted to 23 min.

`CC(=O)/C=C/c1cc(F)c(Oc2ccc([N+](=O)[O-])c(Nc3ccc(C#N)cc3)n2)c(F)c1` [Compound 29, N^2-(4-cyanoanilinyl)-6-(2,6-difluoro-4-((E)-1-methyleneacetonyl)phenoxy)-3-nitropyridine] showed a melting point of 275 to 277 °C.

As to `Cc1cc(CCC#N)cc(C)c1Oc1cc(Nc2ccc(C#N)cc2)c(N)cc1CNC1CC1` [Compound 34, 5-(4″-cyanoethyl-2″,6″-dimethylphenoxy)-N^1-(4′-cyanophenyl)-4-(2-cyclopropylaminomethyl)-1,2-phenylenediamine], in series [1], the selectivity ratio at 2 days was over 9430. For the same compound, the EC50 was determined as 0.53 nM with NL4-3 virus (setting [8]), 4.88 nM in series [3], 27.3 nM in [4] and 25.7 nM in [5]. Besides, the CC50 at 4 d in series [2] was over 5000 nM. In series [6], this compound registered a solubility of 9.11 µg/mL (≈ 20.2 µM). Moreover, the half-life in series [7] was 42 min.

`Cc1cc(CCC#N)cc(C)c1Oc1cc(Nc2ccc(C#N)cc2)c(N)cc1N` [Compound 35, 5-(4″-cyanoethyl-2″,6″-dimethylphenoxy)-N^1-(4′-cyanophenyl)-4-amino-1,2,4-triaminobenzene] displayed a melting point of 118 to 120 °C. Moreover, in series [1], the selectivity ratio at 2 days was over 820. Further, the EC50 with NL4-3 virus (Human immunodeficiency virus 1, NL43, NL4-3 HIV wild-type, TZM-bl cells) was 6.1 nM. Further, the CC50 at 4 d in series [2] was over 5000 nM.

What is called solubility is how much of the substance goes into solution per volume. Lower therefore signals a poorly soluble substance. A word on the melting point: it is the temperature, or range, at which the solid turns liquid.
